PubChem BioAssay AID1508591

Details: rat; liver microsomes; pH 7.4; 15.0 min; 1.0 µM

Row | Structure (SMILES) | half-life [min]
1 | Clc1ccc2ncc(-c3cccc(NC4CNC4)n3)n2c1 | 13.6
2 | CSc1ccc(C(=O)c2[nH]c(=O)[nH]c2C)cc1 | > 30
3 | Cc1ccc(-c2cc(C(=O)NCc3ccc(S(N)(=O)=O)cc3)c3ccccc3n2)cc1C | 17
4 | Cn1c2ccccc2c(=O)c2c(=O)n(-c3ccccc3)c(C3CCCCC3)nc21 | > 30
5 | CC(C)(C)OC(=O)NC1CCN(c2nc(-c3ccc(Br)cc3)cs2)CC1 | > 30
6 | Cc1nn(CC(=O)NCCCN2CCC(N3CCCCC3)CC2)c(=O)c2cc(-c3ccccc3)nn12 | 13
7 | Cc1cc(N[S+](=O)([O-])c2ccc(NC(=O)Cc3ccc(F)c(F)c3)cc2)no1 | > 30
8 | Cn1cc(S(=O)(=O)N2CCOCC2)cc1C(=O)Nc1ccc(Cl)c(C(F)(F)F)c1 | > 30
9 | Cc1cccc(S(=O)(=O)Nc2cnccc2C(=O)Nc2nc(-c3ccccc3)cs2)c1 | 6
10 | CCOC(=O)c1ccc(NC(=O)N2Cc3[nH]cnc3C[C@H]2c2nc(C(C)C)no2)cc1 | 6.65
11 | O=C1Cc2cc(C(=O)c3ccco3)ccc2N1 | 20
12 | O=c1cc(CSc2ccc(Cl)cc2)nc(-c2ccccn2)[nH]1 | 1.52
13 | CCC(=O)NC(c1ccc(OC)cc1)c1cc(Cl)c2cccnc2c1O (centres undefined) | 4.41
14 | COc1ccc(CNc2ccc(S(=O)(=O)Nc3nccs3)cc2)c(O)c1 | 3.9
15 | Cc1noc(C)c1-c1ccc2ncnc(NC(C)c3ccccc3)c2c1 (centres undefined) | 7.65
16 | CCc1ccc(C(=O)Nc2cc(CN3CCN(C)CC3)cc(C(F)(F)F)c2)cc1C#Cc1cnc2ccnn2c1 | > 30
17 | COc1ccc(OC)c(CN2CCNc3cc(Nc4ccccc4)ncc3C2)c1 | 2.23
18 | Cc1nn(CCc2nc(-c3ccccc3)cs2)c2[nH]c(=O)cc(C(F)(F)F)c12 | 10.3
19 | Cc1cc(F)ccc1-c1nc(NCCN=C(N)NC#N)nc2c1ccc(=O)n2-c1c(F)cccc1F | 5.23
20 | COc1cccc(-c2nc(-c3cc4cc(OC)ccc4[nH]c3=O)no2)c1 | 24
21 | Cc1ccc(S(=O)(=O)N2CCN(C(=O)c3cc4c(s3)CCC4)CC2)cc1 | 1.58
22 | COc1cccc(CNc2ccc(S(=O)(=O)Nc3ccccn3)cc2)c1O | > 30
23 | COc1ccc(C(=O)NC2CCN(c3cnn(CC4CC4)c(=O)c3)CC2)c(OC)n1 | 13.9
24 | COc1cccc(CN2CCNc3cc(Nc4ccccc4)ncc3C2)c1 | 1.58
25 | COc1ccc(OC)c(CNc2ncnc3onc(C)c23)c1 | 5.68

Row | Structure (SMILES) | half-life [min]
26 | CS(=O)(=O)c1ccc(-c2cnc(NCc3ccco3)n3cnnc23)cc1 | > 30
27 | CC(=O)N1CCC2(CCCN(c3ccc(-c4ccccc4)cc3)C2)CC1 | 16
28 | COc1cc(N2CCC(N3CCN(C)CC3)CC2)ccc1Nc1ncc(Cl)c(Nc2ccccc2P(C)(C)=O)n1 | > 30
29 | CNC1(c2ccccc2Cl)CCCCC1=O (centres undefined) | 4.44
30 | Cc1cc(C)cc(NS(=O)(=O)c2ccc3[nH]cc(C(=O)NCc4ccco4)c(=O)c3c2)c1 | 1.84
31 | Cc1noc(C)c1[S+](=O)([O-])N1CCC2(CC1)CC(c1cccc(C(F)(F)F)c1)=NO2 | 24.8
32 | Fc1ccc(Nc2nc(-c3ccccc3)cc(-c3ccncc3)n2)cc1F | > 30
33 | O=C(NC1CCCc2c1[nH]c1ccc(Cl)cc21)c1ccncc1 (centres undefined) | > 30
34 | S=C(NCCCc1cnc[nH]1)NCCCN(Cc1ccc(Cl)c(Cl)c1)c1ccc(Br)cn1 | > 30
35 | CC(C)(C)C1CCc2c(sc(NC(=O)c3ccncc3)c2C(N)=O)C1 (centres undefined) | > 30
36 | Cc1ccc(-c2cc(C(=O)Nc3ccc(-c4nn[nH]n4)cc3)c3ccccc3n2)cc1C | > 30
37 | O=[S+]([O-])(Nc1ccc(N2CCNCC2)cc1)c1ccc(NCc2cccc(Cl)c2O)cc1 | > 30
38 | Nc1c(S(=O)(=O)c2cccs2)c2nc3ccccc3nc2n1Cc1ccccc1 | 1.27
39 | C[C@]12CC[C@@H]3[C@H](CCC4=CC(=O)CC[C@]43C)[C@]1(O)CC[C@@]2(O)C(=O)CO | 20.9
40 | COc1cccc(CNc2ccc(S(=O)(=O)Nc3ccc(C)nc3)cc2)c1O | 16
41 | CC1CCc2ccc(F)cc2N1S(=O)(=O)c1cccs1 (centres undefined) | 2.7
42 | CN1C(=O)CN=C(c2ccc[nH]2)c2cc(Cl)ccc21 | 16
43 | CCn1cc(C(=O)O)c(=O)c2cnc(N3CCN(C(=S)Nc4ccccc4)CC3)nc21 | > 30
44 | O=C(Nc1ccc(S(=O)(=O)Nc2nccs2)cc1)c1ccncc1 | > 30
45 | Cc1ccc(NC(=O)c2c(N3CCCC3=O)c3cc(C)ccc3n2C)c(C)c1 | 1.31
46 | COc1ccc2[nH]c(=O)c(-c3noc(-c4ccc(F)cc4)n3)cc2c1 | > 30
47 | CC(=O)c1c(C)[nH]c(C(=O)Nc2ccc(C)c(S(=O)(=O)Nc3ccc(Br)cc3)c2)c1C | 19
48 | NCC(=O)Nc1cncc(-c2nn3c(=O)cc(N4CCNCC4)nc3s2)c1 | > 30
49 | O=C(Nc1ccc(S(=O)(=O)Nc2nc(-c3ccccc3)cs2)cc1)c1ccc2ccccc2c1 | > 30
50 | CC(O)(C#Cc1ccc2c(c1)N(c1nc(N)ncc1Cl)CC2)c1nccs1 (centres undefined) | 7.75

Row | Structure (SMILES) | half-life [min]
51 | COc1ccc(-c2nc(CS(=O)CC(=O)N3CCC4(CC3)OCCO4)c(C)o2)cc1 (centres undefined) | > 30
52 | O=C(Nc1ccc(Cl)cc1Cl)c1cnc2ccccc2n1 | 3
53 | Oc1ccc(CNc2cccc(F)c2F)c2cccnc12 | 6.35
54 | CCc1[nH]c2ccc(CNC(=O)Cc3cnc4c(C)cccn34)cc2c1C | 2.4
55 | CCOc1ccc(CCNC(=O)c2cc3ccccc3n2Cc2ccccn2)cc1OCC | 1.5
56 | O=C(Nc1ccc(Cl)cc1)C(NS(=O)(=O)c1cccs1)c1ccccc1 (centres undefined) | 5.38
57 | COc1ccc(C(=O)NC2CCCc3c2[nH]c2ccccc32)cc1OC (centres undefined) | 24.6
58 | O=c1c2ccccc2nc(/C=C/c2cccnc2)n1Cc1ccccc1 | 8.99
59 | COc1ccc(CNC(=O)Cn2nc3c(cc2=O)CCCC3)cc1 | > 30
60 | COc1ccccc1N1CCN(CCN(C(=O)c2ccc(I)cc2)c2ccccn2)CC1 | 1.49
61 | CCOc1ccc(CCNC(=O)c2cc3cnccc3n2Cc2cccc(C)c2)cc1OCC | 6.9
62 | Brc1ccccc1-c1nc(NCc2ccc(-c3cccnc3)cc2)c2ccccc2n1 | 6.55
63 | COc1ccc(-n2nc(C3CCCN(C(=O)C4CC4)C3)[nH]c2=O)cc1 (centres undefined) | > 30
64 | c1ccc2[nH]c(Nc3nc(-c4ccncc4)nc4ccccc34)nc2c1 | 13
65 | CCS(=O)(=O)N1CC(CC#N)(n2cc(-c3ncnc4[nH]ccc34)cn2)C1 | > 30
66 | Cc1sc(NC(=O)Cc2ccc3c(c2)OCO3)nc1-c1ccc2c(c1)CCN2C(=O)C1CCCCC1 | 8.6
67 | COc1ccc(-n2nc(C3CCCN(C(=O)c4ccccc4)C3)[nH]c2=O)cc1 (centres undefined) | > 30
68 | Cc1c(-c2cccc3c(CCCOc4cccc5ccccc45)c(C(=O)O)n(Cc4cccnc4)c23)c(COc2ccc(N3CCN([S+](=O)([O-])N(C)C)CC3)cc2)nn1C | 12
69 | C[C@H]1CN(C(=O)c2nn(C)c3ccccc23)C[C@@H]1c1nc(-c2ccncc2)no1 | 5.01
70 | O=C1CCc2ccc(OCCCCN3CCN(c4cccc(Cl)c4Cl)CC3)cc2N1 | 2.56
71 | CNC(=O)c1cccc(-c2cnc(Nc3cccc(C(F)(F)F)c3)c3c2CCO3)c1 | > 30
72 | COc1ccc(-c2csc(N3CCC(C(N)=O)CC3)n2)cc1OC | > 30
73 | O=C(CCCCn1c(=O)[nH]c2ccsc2c1=O)N1CCN(c2cccc(Cl)c2)CC1 | 8.06
74 | COc1cccc(CNc2ccc(S(=O)(=O)Nc3ccc(N4CCNCC4)cc3)cc2)c1O | > 30
